Earlier results as cited in US20090182054A1, “Topical compositions containing solubilized dicarboxylic acids” (priority 2008, published 2009).

Key:
[1] = water, 25 deg C
[2] = system: inflammatory papule lesions and erythema; settings: topical application

solubility [1]: 0.24 gram per 100 gram of water
SMILES: O=C(O)CCCCCCCC(=O)O [azelaic acid, Azelaic acid]
inflammatory papule lesions and erythema [2]: significantly reduce
